Tested on: tyrosinase
Assay: Tyrosinase inhibition, absorbance of Dopa-Chroma at 475 nm
Assay type: biochemical, mushroom
Details: for Inhibition (%): Inhibitory agent 0.15mg/ml, tyrosine substrate, 30 minutes at 37° C.; for Relative strength of tyrosinase inhibition among the catechins: comparison of the catechins of Table 1
Description: The level of tyrosinase, inhibition was measured according to the following method.
50 μl of the enzyme (8300 U/ml) (Source:mushroom, SIGMA) was added to a mixture of 250 μl of tyrosine substrate solution (0.3 mg/ml), 250 μl of the inhibiting (polyphenol) solution (0.5 mg/ml), 250 μl of Macllvain buffer solution and left for 30 minutes at 37° C. After this time the absorbance of the red colored Dopa-Chroma formed was measured at 475 nm.
Inhibition(%)=[(A-B)-(C-D)]/(A-B)×100
Where A, B, C, D represent the absorbance of solutions A, B, C and D as defined below, measured at 475 nm respectively.
A is the tyrosine+enzyme solution
B is the tyrosine solution
C is the tyrosine+enzyme+polyphenol solution
D is the tyrosine+polyphenol solution

Inhibition (%) | SMILES | Relative strength of tyrosinase inhibition among the catechins
95.1 | O=C(O[C@@H]1Cc2c(O)cc(O)cc2O[C@@H]1c1ccc(O)c(O)c1)c1cc(O)c(O)c(O)c1 [Epicatechin gallate, (-)Epicatechin gallate] | strongest inhibitors of tyrosinase
11.9 | Oc1cc(O)c2c(c1)O[C@H](c1ccc(O)c(O)c1)[C@H](O)C2 [Epicatechin, (-)Epicatechin] | 
17.5 | Oc1cc(O)c2c(c1)O[C@H](c1cc(O)c(O)c(O)c1)[C@H](O)C2 [Epigallocatechin, (-)Epigallocatechin] | 

SMILES | Inhibition (%) | Relative strength of tyrosinase inhibition among the catechins
O=C(O[C@@H]1Cc2c(O)cc(O)cc2O[C@@H]1c1cc(O)c(O)c(O)c1)c1cc(O)c(O)c(O)c1 [Epigallocatechin gallate, (-)Epigallocatechin gallate] | 79.5 | strongest inhibitors of tyrosinase

From US5670154A, “Reducing tyrosinase activity” (priority 1994, dated 1997)
